Data as given in patent US20220152117A1, “METHODS OF PROMOTING CELLULAR MATURATION WITH AMPK ACTIVATORS” (UNIVERSITY OF WASHINGTON, priority 2019, published 2022).
“Also recorded” adds a separate entry of the source.

How the values were obtained:
hiPSC-derived neurons = assay: mtDNA:nDNA ratio by quantitative PCR in neurons; type: cell-based, human; settings: two weeks of treatment with AICAR every third day
hiPS-HLCs = assay: RT-PCR of hepatic and mitochondrial-related genes in hepatocyte-like cells; type: cell-based, human
Protocol: Undifferentiated human IMR90-induced pluripotent stem cells, originally derived from lung fibroblasts^22 (James A. Thomson, University of Wisconsin-Madison), were expanded using mouse embryonic fibroblast-conditioned medium supplemented with 5 ng/ml basic fibroblast growth factor. Cardiomyocytes were obtained using a previously described protocol^2 that involves the serial application of activin A and bone morphogenetic protein-4 (BMP4) under serum-free, monolayer culture conditions. The cultures were also supplemented with the Wnt agonist CHIR99021 in the early stages of differentiation followed by the Wnt antagonist Xav939. In this study, cardiomyocytes derived from human undifferentiated IMR90-induced stem cells were used, and for brevity, these are referred to human induced pluripotent stem cell-derived cardiomyocytes (hiPSC-CM). After 20 days of in vitro differentiation, the cells were dispersed using 0.05% trypsin-EDTA and re-plated. Cultures were fed every other day thereafter with serum-free RPMI-B27 plus insulin. Only cell preparations containing >80% cardiac troponin T-positive cardiomyocytes (by flow cytometry) were used for the current investigation. Twenty days after induction, cells were re-plated at different densities based on experimental purposes (described below). Cells were treated with 1 mM AICAR for two weeks (unless otherwise mentioned specifically), with media being changed every other day. This study was mainly performed with cardiomyocytes-derived from IMR90 iPS cell line. However, cardiomyocytes-derived from another iPS cell line, WTC11 iPS cells^22, and a human embryonic stem cell line (hESC), RUES2 cells, were also used for some of the experiments. Rues and WTC undifferentiated cells were cultured with mTeSR medium. Similar differentiation protocols as to IMR90 were used to obtain cardiomyocytes from Rues and WTC cells. Only cell preparations containing >80% cardiac troponin T-positive cardiomyocytes (by flow cytometry) were used for the current investigation. Undifferentiated iPSCs were maintained on StemAdhere™ (Primorigin Biosciences®) with mTesR medium supplemented with bFGF. The formation of hepatocyte-like cells from iPSCs was achieved as described previously^24,25. Briefly, cells were induced to form endoderm by addition of 100 ng/ml Activin A, 10 ng/ml BMP4, and 20 ng/ml FGF2 for two days followed by 100 ng/ml Activin A for an additional three days. Hepatic progenitor cells were formed by supplementing the medium with 20 ng/ml BMP4 and 10 ng/ml FGF2. Next, 20 ng/ml HGF was added between days 10 and 15 and induced maturation of the hepatocytes by culturing the cells in HCM medium (Lonza®) containing 20 ng/ml Oncostatin M until day 20. In some experiments, the differentiation medium was supplemented with 1.0 mM AICAR between days 15 and 20. hiPSC-derived neurons were generated following previously published protocols^26, 27, 28. Briefly, hiPSCs from a control individual^28 and from a patient with the duplication of the amyloid precursor protein (APP) gene^27 were cultured on mouse embryonic fibroblasts in the presence of 20 ng/ml bFGF (Peprotech®). Neural stem cells were generated by hiPSC co-culture on the mouse stromal cell line PA6 in the presence of 0.5 ug/ml Noggin (Peprotech®) and 10 uM SB431542 (Peprotech®). After 12 days, neural rosettes were dissociated and FACS sorted for the cell surface markers CD184/CD24^+; CD44/CD271^−. Neural stem cells were propagated in 20 ng/ml bFGF and neuronal differentiation was induced by the withdrawal of bFGF and the addition of 20 ng/ml BDNF (Peprotech®), 20 ng/ml GDNF (Peprotech®), […] dbCAMP (Peprotech®).
Total RNA was isolated using the Qiagen RNeasy Kit™, and mRNA was reverse transcribed using the Superscript™ III first strand cDNA synthesis kit (Invitrogen®). All primers were purchased from Real Time Primers, and qRT-PCR was performed using SYBR™ green chemistry and an ABI 7900HT instrument or TAQMAN™ with BIORad CXF384™. […]

[1] = HLCs treated at day 20 with 1 mM AICAR for additional seven days

Q: For NC(=O)c1ncn([C@@H]2O[C@H](CO)[C@@H](O)[C@H]2O)c1N [AICAR, 5-amino-4-imidazolecarboxamide riboside-1-β-D-ribofuranoside], which “mtDNA/nDNA ratio in neurons” value (hiPSC-derived neurons) is on record?
A: increase

Q: What about the “HNF4α expression, treatment day 15 to 17” value (hiPS-HLCs; 1 mM AICAR day 15 to 17) of the same compound?
A: significantly down-regulated

Q: And the “other mature hepatic-related genes (SLC10A1, APOH, ASGR, APOB, and PXR)” value (hiPS-HLCs; 1 mM AICAR day 15 to 17)?
A: no significant difference

Q: And the “AFP expression, treatment day 15 to 17” value (hiPS-HLCs; 1 mM AICAR day 15 to 17, endpoint day 20)?
A: diminished; also recorded: significantly reduced

Q: And the “ALB expression, treatment day 15 to 17” value (hiPS-HLCs; 1 mM AICAR day 15 to 17, endpoint day 20, b310 calls the change non-significant)?
A: enhanced

Q: And the “ALB expression, longer treatment” value (hiPS-HLCs; 1 mM AICAR, longer treatment between days 15 and 20, endpoint day 20)?
A: adversely affected

Q: And the “PDK4 expression in HLCs” value (hiPS-HLCs; [1])?
A: significantly increased

Q: And the “PGC1α, ERRa, PPARα, TFAM and HNF4α expression in HLCs” value (hiPS-HLCs; [1])?
A: no significant effect
